Like-named read-outs stand apart in the source and are kept apart here.
Key:
Legionella [1] = tested on: Legionella
Legionella [2] = tested on: Legionella; remark: listed apart in the source

## ammonium iron (II) sulfate hexahydrate
Legionella [1]
  effect on Legionella at low concentration: a sufficient effect was obtained
  growth of Legionella: greatly suppressed

## ammonium iron (III) sulfate dodecahydrate
Legionella [1]
  effect on Legionella at low concentration: a sufficient effect was obtained
  growth of Legionella: greatly suppressed

## iron (II) sulfate heptahydrate
Legionella [2]
  effect on Legionella at low concentration: an effect was obtained
  growth of Legionella: greatly suppressed
Legionella [1]
  decrease of the number of bacteria: at least 3 orders of magnitude
  effect on Legionella at low concentration: the effect was observed
  growth of Legionella: greatly suppressed

## iron (III) chloride hexahydrate
Legionella [2]
  effect on Legionella at low concentration: an effect was obtained
  growth of Legionella: greatly suppressed

From patent publication US20210061684A1 (HIYOSHI CORPORATION, priority 2018, published 2021)
